# Measurements reported in patent US20070191291A1, “Compound antibacterial drugs comprising n-acetyl-d-glucosamine” (priority 2003, published 2007).
# System: E. coli
# Experiment: Test Example 1: inducing E. coli CGC with N-acetyl-D-glucosamine and antibiotics in different ratios (K-B method, microscopy)
# Format: cell-based
structure (smiles),measurement,setting,value
"CC(=O)N[C@@H]1[C@@H](O)[C@H](O)[C@@H](CO)O[C@H]1O [Compound (I), N-acetyl-D-glucosamine]",CGC formation,"Compound (I) 10 mg, aminoglycoside (kanamycin, gentamycin) 50 mg","− (if cell length was not greater than 50 μm and cell number was within the range from 0 to 4 in each visual field, it was deemed as CGC negative and was marked with “−”)"
same,CGC formation,"Compound (I) 10 mg, aminoglycoside (kanamycin, gentamycin) 100 mg","+ (If cell length was more than 50 μm and cell number was more than 5 in each visual field, it was deemed as CGC positive and was marked with “+”)"
same,CGC formation,"Compound (I) 10 mg, aminoglycoside (kanamycin, gentamycin) 150 mg","+ (If cell length was more than 50 μm and cell number was more than 5 in each visual field, it was deemed as CGC positive and was marked with “+”)"
same,CGC formation,"Compound (I) 10 mg, aminoglycoside (kanamycin, gentamycin) 200 mg","+ (If cell length was more than 50 μm and cell number was more than 5 in each visual field, it was deemed as CGC positive and was marked with “+”)"
same,CGC formation,"Compound (I) 10 mg, aminoglycoside (kanamycin, gentamycin) 300 mg","+ (If cell length was more than 50 μm and cell number was more than 5 in each visual field, it was deemed as CGC positive and was marked with “+”)"
same,CGC formation,"Compound (I) 10 mg, aminoglycoside (kanamycin, gentamycin) 400 mg","+ (If cell length was more than 50 μm and cell number was more than 5 in each visual field, it was deemed as CGC positive and was marked with “+”)"
same,CGC formation,"Compound (I) 10 mg, aminoglycoside (kanamycin, gentamycin) 500 mg","+ (If cell length was more than 50 μm and cell number was more than 5 in each visual field, it was deemed as CGC positive and was marked with “+”)"
same,CGC formation,"Compound (I) 10 mg, macrolide (spiramycin) 300 mg","− (if cell length was not greater than 50 μm and cell number was within the range from 0 to 4 in each visual field, it was deemed as CGC negative and was marked with “−”)"
same,CGC formation,"Compound (I) 10 mg, macrolide (spiramycin) 500 mg","+ (If cell length was more than 50 μm and cell number was more than 5 in each visual field, it was deemed as CGC positive and was marked with “+”)"
same,CGC formation,"Compound (I) 10 mg, macrolide (spiramycin) 700 mg","+ (If cell length was more than 50 μm and cell number was more than 5 in each visual field, it was deemed as CGC positive and was marked with “+”)"
same,CGC formation,"Compound (I) 10 mg, macrolide (spiramycin) 900 mg","+ (If cell length was more than 50 μm and cell number was more than 5 in each visual field, it was deemed as CGC positive and was marked with “+”)"
same,CGC formation,"Compound (I) 10 mg, macrolide (spiramycin) 1100 mg","+ (If cell length was more than 50 μm and cell number was more than 5 in each visual field, it was deemed as CGC positive and was marked with “+”)"
same,CGC formation,"Compound (I) 10 mg, macrolide (spiramycin) 1300 mg","+ (If cell length was more than 50 μm and cell number was more than 5 in each visual field, it was deemed as CGC positive and was marked with “+”)"
same,CGC formation,"Compound (I) 10 mg, macrolide (spiramycin) 1500 mg","+ (If cell length was more than 50 μm and cell number was more than 5 in each visual field, it was deemed as CGC positive and was marked with “+”)"
same,CGC formation,"Compound (I) 50 mg, aminoglycoside (kanamycin, gentamycin) 50 mg","− (if cell length was not greater than 50 μm and cell number was within the range from 0 to 4 in each visual field, it was deemed as CGC negative and was marked with “−”)"
same,CGC formation,"Compound (I) 50 mg, aminoglycoside (kanamycin, gentamycin) 100 mg","− (if cell length was not greater than 50 μm and cell number was within the range from 0 to 4 in each visual field, it was deemed as CGC negative and was marked with “−”)"
same,CGC formation,"Compound (I) 50 mg, aminoglycoside (kanamycin, gentamycin) 150 mg","+ (If cell length was more than 50 μm and cell number was more than 5 in each visual field, it was deemed as CGC positive and was marked with “+”)"
same,CGC formation,"Compound (I) 50 mg, aminoglycoside (kanamycin, gentamycin) 200 mg","+ (If cell length was more than 50 μm and cell number was more than 5 in each visual field, it was deemed as CGC positive and was marked with “+”)"
same,CGC formation,"Compound (I) 50 mg, aminoglycoside (kanamycin, gentamycin) 300 mg","+ (If cell length was more than 50 μm and cell number was more than 5 in each visual field, it was deemed as CGC positive and was marked with “+”)"
same,CGC formation,"Compound (I) 50 mg, aminoglycoside (kanamycin, gentamycin) 400 mg","+ (If cell length was more than 50 μm and cell number was more than 5 in each visual field, it was deemed as CGC positive and was marked with “+”)"
same,CGC formation,"Compound (I) 50 mg, aminoglycoside (kanamycin, gentamycin) 500 mg","+ (If cell length was more than 50 μm and cell number was more than 5 in each visual field, it was deemed as CGC positive and was marked with “+”)"
same,CGC formation,"Compound (I) 50 mg, macrolide (spiramycin) 300 mg","− (if cell length was not greater than 50 μm and cell number was within the range from 0 to 4 in each visual field, it was deemed as CGC negative and was marked with “−”)"
same,CGC formation,"Compound (I) 50 mg, macrolide (spiramycin) 500 mg","− (if cell length was not greater than 50 μm and cell number was within the range from 0 to 4 in each visual field, it was deemed as CGC negative and was marked with “−”)"
same,CGC formation,"Compound (I) 50 mg, macrolide (spiramycin) 700 mg","+ (If cell length was more than 50 μm and cell number was more than 5 in each visual field, it was deemed as CGC positive and was marked with “+”)"
same,CGC formation,"Compound (I) 50 mg, macrolide (spiramycin) 900 mg","+ (If cell length was more than 50 μm and cell number was more than 5 in each visual field, it was deemed as CGC positive and was marked with “+”)"
same,CGC formation,"Compound (I) 50 mg, macrolide (spiramycin) 1100 mg","+ (If cell length was more than 50 μm and cell number was more than 5 in each visual field, it was deemed as CGC positive and was marked with “+”)"
same,CGC formation,"Compound (I) 50 mg, macrolide (spiramycin) 1300 mg","+ (If cell length was more than 50 μm and cell number was more than 5 in each visual field, it was deemed as CGC positive and was marked with “+”)"
same,CGC formation,"Compound (I) 50 mg, macrolide (spiramycin) 1500 mg","+ (If cell length was more than 50 μm and cell number was more than 5 in each visual field, it was deemed as CGC positive and was marked with “+”)"
same,CGC formation,"Compound (I) 100 mg, aminoglycoside (kanamycin, gentamycin) 50 mg","− (if cell length was not greater than 50 μm and cell number was within the range from 0 to 4 in each visual field, it was deemed as CGC negative and was marked with “−”)"
same,CGC formation,"Compound (I) 100 mg, aminoglycoside (kanamycin, gentamycin) 100 mg","− (if cell length was not greater than 50 μm and cell number was within the range from 0 to 4 in each visual field, it was deemed as CGC negative and was marked with “−”)"
same,CGC formation,"Compound (I) 100 mg, aminoglycoside (kanamycin, gentamycin) 150 mg","− (if cell length was not greater than 50 μm and cell number was within the range from 0 to 4 in each visual field, it was deemed as CGC negative and was marked with “−”)"
same,CGC formation,"Compound (I) 100 mg, aminoglycoside (kanamycin, gentamycin) 200 mg","+ (If cell length was more than 50 μm and cell number was more than 5 in each visual field, it was deemed as CGC positive and was marked with “+”)"
same,CGC formation,"Compound (I) 100 mg, aminoglycoside (kanamycin, gentamycin) 300 mg","+ (If cell length was more than 50 μm and cell number was more than 5 in each visual field, it was deemed as CGC positive and was marked with “+”)"
same,CGC formation,"Compound (I) 100 mg, aminoglycoside (kanamycin, gentamycin) 400 mg","+ (If cell length was more than 50 μm and cell number was more than 5 in each visual field, it was deemed as CGC positive and was marked with “+”)"
same,CGC formation,"Compound (I) 100 mg, aminoglycoside (kanamycin, gentamycin) 500 mg","+ (If cell length was more than 50 μm and cell number was more than 5 in each visual field, it was deemed as CGC positive and was marked with “+”)"
same,CGC formation,"Compound (I) 100 mg, macrolide (spiramycin) 300 mg","− (if cell length was not greater than 50 μm and cell number was within the range from 0 to 4 in each visual field, it was deemed as CGC negative and was marked with “−”)"
same,CGC formation,"Compound (I) 100 mg, macrolide (spiramycin) 500 mg","− (if cell length was not greater than 50 μm and cell number was within the range from 0 to 4 in each visual field, it was deemed as CGC negative and was marked with “−”)"
same,CGC formation,"Compound (I) 100 mg, macrolide (spiramycin) 700 mg","− (if cell length was not greater than 50 μm and cell number was within the range from 0 to 4 in each visual field, it was deemed as CGC negative and was marked with “−”)"
same,CGC formation,"Compound (I) 100 mg, macrolide (spiramycin) 900 mg","+ (If cell length was more than 50 μm and cell number was more than 5 in each visual field, it was deemed as CGC positive and was marked with “+”)"
same,CGC formation,"Compound (I) 100 mg, macrolide (spiramycin) 1100 mg","+ (If cell length was more than 50 μm and cell number was more than 5 in each visual field, it was deemed as CGC positive and was marked with “+”)"
same,CGC formation,"Compound (I) 100 mg, macrolide (spiramycin) 1300 mg","+ (If cell length was more than 50 μm and cell number was more than 5 in each visual field, it was deemed as CGC positive and was marked with “+”)"
same,CGC formation,"Compound (I) 100 mg, macrolide (spiramycin) 1500 mg","+ (If cell length was more than 50 μm and cell number was more than 5 in each visual field, it was deemed as CGC positive and was marked with “+”)"
same,CGC formation,"Compound (I) 150 mg, aminoglycoside (kanamycin, gentamycin) 50 mg","− (if cell length was not greater than 50 μm and cell number was within the range from 0 to 4 in each visual field, it was deemed as CGC negative and was marked with “−”)"
same,CGC formation,"Compound (I) 150 mg, aminoglycoside (kanamycin, gentamycin) 100 mg","− (if cell length was not greater than 50 μm and cell number was within the range from 0 to 4 in each visual field, it was deemed as CGC negative and was marked with “−”)"
same,CGC formation,"Compound (I) 150 mg, aminoglycoside (kanamycin, gentamycin) 150 mg","− (if cell length was not greater than 50 μm and cell number was within the range from 0 to 4 in each visual field, it was deemed as CGC negative and was marked with “−”)"
same,CGC formation,"Compound (I) 150 mg, aminoglycoside (kanamycin, gentamycin) 200 mg","− (if cell length was not greater than 50 μm and cell number was within the range from 0 to 4 in each visual field, it was deemed as CGC negative and was marked with “−”)"
same,CGC formation,"Compound (I) 150 mg, aminoglycoside (kanamycin, gentamycin) 300 mg","+ (If cell length was more than 50 μm and cell number was more than 5 in each visual field, it was deemed as CGC positive and was marked with “+”)"
same,CGC formation,"Compound (I) 150 mg, aminoglycoside (kanamycin, gentamycin) 400 mg","+ (If cell length was more than 50 μm and cell number was more than 5 in each visual field, it was deemed as CGC positive and was marked with “+”)"
same,CGC formation,"Compound (I) 150 mg, aminoglycoside (kanamycin, gentamycin) 500 mg","+ (If cell length was more than 50 μm and cell number was more than 5 in each visual field, it was deemed as CGC positive and was marked with “+”)"
same,CGC formation,"Compound (I) 150 mg, macrolide (spiramycin) 300 mg","− (if cell length was not greater than 50 μm and cell number was within the range from 0 to 4 in each visual field, it was deemed as CGC negative and was marked with “−”)"
